# Measured values as given in US20090253644A1, “Radiosensitizer” (TOYO SUISAN KAISHA, LTD., priority 2004, published 2009).
# Key:
# [1] = tested on: human tongue squamous carcinoma cells (SAS cells); assay: Animal experiment: SAS tumor-transplanted nude mice, tumor growth delay with X-ray irradiation; assay type: in vivo; settings: for enhancement ratio (ER): tumor volume 500 mm^3
# Description: Nude mice were assigned to four groups (control group; single use group of the present radiosensitizer administration; single use group of irradiation; and combined use group of irradiation and the present radiosensitizer administration; 4 mice per group). 1.0×10^6 human tongue squamous carcinoma cells (SAS cells) were suspended in PBS(−), and the suspension was transplanted subcutaneously into a right thigh of each mouse. After 10 to 14 days, when tumor volume became a desired value in a range of about 50 mm^3 to about 100 mm^3, each mouse was subjected to treatment according to each group. As a radiosensitizer, 3-O-(6-deoxy-6-sulfo-α-D-glucopyranosyl)-1-O-stearoyl-glycerol sodium salt (hereinafter, also referred to as “α-SQMG C18:0”) was used. Regarding the single use group of irradiation, X-ray was irradiated two times (at the time of treatment initiation (day 0) and on day 6 after the treatment initiation) at a dose of 8 Gy. Regarding the single use group of α-SQMG C18:0 administration, the sensitizer was intraperitoneally administered two times (day 0 and day 6) at a concentration of 1 mg/kg. Regarding the combined use group, each mouse of the group was treated with both of irradiation and α-SQMG C18:0 administration. Regarding the control group, neither irradiation nor α-SQMG C18:0 administration was performed. Thereafter, a short diameter and a long diameter of a tumor were measured with a micrometer caliper over a period of 16 to 23 days. Tumor volume was calculated by the following equation, and the tumor growth delaying effect was compared.
# Equation for calculating tumor volume:
# tumor volume (mm^3)=(short diameter)^2×(long diameter)×0.5
# (§1) The same experiment as that of Experimental Example 1-1 was performed except that irradiation was performed at the time of treatment initiation (day 0) and on day 4 after the treatment initiation, administration of α-SQMG C18:0 was performed only on day 0, and measurement of tumor size was performed over a period of 26 days.
# In order to express numerically this synergistic effect, ER (enhancement ratio) was calculated by the following equation. ER is a value defined by the literature (Int., J. Radiation Oncology Bio. Phys. Vol. 55, No. 3, pp. 713-723 (2003)), and ER will be explained below based on the definition.
# ER=NGD÷TGD in the case of X-ray irradiation alone
# In the equation, “TGD (tumor growth delay)” indicates delay of days necessary for tumor volume to reach a predetermined size in each test group as compared with a control group. That is, this is expressed by the following equation. In the Examples of the present invention, the predetermined size of tumor volume is 500 mm^3, unless otherwise indicated.
# TGD=(number of days necessary for tumor volume to reach 500 mm^3 in test group)−(number of days necessary for tumor volume to reach 500 mm^3 in control group)
# “NGD (normalized growth delay)” is expressed by the following equation.
# NGD=(TGD in the case of combined use)−(TGD in the case of drug administration alone)
# According to the aforementioned literature, it can be said that the anti-tumor effect is synergistic, when an enhancement ratio (ER) obtained by the above equation exceeds 1.0.
# as §1, with “3” for “4”, “initiation,” for “initiation, administration of”, “administered once a” for “performed only on”, “from day 0 to day 4,” for “0,”, “35” for “26”
# In the present Experimental Example, an experiment was performed in the same manner as in the above Experimental Example except that irradiation was performed at a dose of 2 Gy per fraction everyday from the time of treatment initiation (day 0) to day 4, and administration of α-SQMG C18:0 was performed everyday from day 0 to day 4. Details of the experiment will be described below.
# Four nude mice (eight weeks old) were randomly assigned to each of four groups. […]
# [2] = tested on: human uterine cervical cancer cells (HeLa cells); assay: Animal experiment: HeLa tumor-transplanted nude mice, tumor growth delay with X-ray irradiation; assay type: in vivo; settings: Exp. Ex. 1-6: X-ray 8 Gy day 0 and day 4
# Procedure: A human cancer-transplanted mouse was prepared in the same manner as in Experimental Example 1-5 except that human uterine cervical cancer cells (HeLa cells) were transplanted into a nude mouse. When tumor volume reached 100 mm^3, α-SQMG C18:0 administration and irradiation treatment were performed. In a single use group of irradiation, each mouse was irradiated with X-ray at a dose of 8 Gy two times on day 0 and day 4. In a single use group of α-SQMG C18:0 administration, α-SQMG C18:0 was intraperitoneally administered at a concentration of 1 mg/kg at a total of 10 times consisting of two courses of 5 times, that is, once a day from day 0 to day 4 and once a day from day 12 to day 16. In the combined use group, each mouse of the group was treated with both of irradiation and α-SQMG C18:0 administration. In the control group, neither irradiation nor α-SQMG C18:0 administration was performed. Thereafter, tumor volume was measured over a period of 35 days in the same manner as the above Experimental Example 1-1.
# [3] = Exp. Ex. 1-2: X-ray 8 Gy day 0 and day 4, 1 mg/kg i.p. day 0 only
# [4] = Exp. Ex. 1-3: X-ray 8 Gy day 0 and day 3, 1 mg/kg i.p. once a day day 0 to 4
compound,measurement,setting,value
"CCCCCCCCCCCCCCCCCC(=O)OCC(O)CO[C@H]1O[C@H](CS(=O)(=O)[O-])[C@@H](O)[C@H](O)[C@H]1O.[Na+] (stereo partly drawn) [α-SQMG C18:0, 3-O-(6-deoxy-6-sulfo-α-D-glucopyranosyl)-1-O-stearoyl-glycerol sodium salt]","anti-tumor effect (tumor volume), combined use with irradiation","[1]; Exp. Ex. 1-1: X-ray 8 Gy day 0 and day 6, 1 mg/kg i.p. day 0 and day 6",anti-tumor effect far exceeding the anti-tumor effect attained by irradiation
same,"anti-tumor effect (tumor volume), combined use with irradiation",[1]; [3],anti-tumor effect far exceeding the anti-tumor effect attained by irradiation
same,enhancement ratio (ER),[1]; [3],2.0
same,"anti-tumor effect (tumor volume), combined use with irradiation",[1]; [4],anti-tumor effect far exceeding the anti-tumor effect attained by irradiation
same,enhancement ratio (ER),[1]; [4],3.0
same,"anti-tumor effect (tumor volume), combined use with irradiation","[1]; Exp. Ex. 1-4: X-ray 2 Gy once a day day 0 to 4 (total 10 Gy), 1 mg/kg i.p. once a day day 0 to 4",anti-tumor effect exceeding the anti-tumor effect attained by irradiation alone
same,enhancement ratio (ER),"[1]; Exp. Ex. 1-4: X-ray 2 Gy once a day day 0 to 4, 1 mg/kg i.p. once a day day 0 to 4",1.8
same,enhancement ratio (ER),"[2]; 1 mg/kg i.p. day 0 to 4 and day 12 to 16, tumor volume 500 mm^3",2.71
same,"anti-tumor effect (tumor volume), combined use with irradiation",[2]; 1 mg/kg i.p. once a day day 0 to 4 and day 12 to 16,anti-tumor effect far exceeding the anti-tumor effect attained by irradiation
